Where two headings read alike, the source gives them in different places. Peptide text beside a SMILES is read from it. * marks the point of attachment. Propanoyl(3-(9AA-2-yl)) = Nc1c2ccccc2nc2ccc(CCC(=O)*)cc12
Experiments:
[1] = Fluorescence lifetime by time-correlated single photon counting (Edinburgh Instruments FLS920); assay type: physicochemical; conditions: for Lifetime* (ns): Table 3, molecules synthesised; for Fluorescence Lifetime (nsecs) in PBS pH 7.4: excited at 405 nm, detection at 450 nm, 10 mM phosphate buffered saline pH 7.4; for Lifetime (ns): Table 2, 9-aminoacridine derivatives
Experimental: Fluorescence lifetimes were determined by time-correlated single photon counting using an Edinburgh Instruments FLS920 fluorimeter. Samples were excited at 405 nm with detection at 450 nm. Measurements were recorded in 10 mM phosphate buffered saline pH 7.4.
Excitation wavelength 405 nm and emission wavelength 450 nm.

[2] = Fluorescence emission spectra / intensity; assay type: physicochemical; conditions: for fluorescence emission intensity compared with N-methyl acridone: excitation at 405 nm, 140 mM NaCl, 10 mM phosphate buffer pH 7.4; for Relative intensity Ex405 nm, Emmax: relative to 9-aminoacridine = 1
Experimental: Fluorescence emission spectra of 10-methyl-9(10H)-thioacridone (N-methyl thioacridone) and 10-methyl-9(10H)-acridone (N-methylacridone) in 140 mM NaCl, 10 mM phosphate buffer pH 7.4 upon excitation at 405 nm, were obtained. The thioacridone concentration is 500 nM and the 10-methyl-9(10H)-acridone (N-methylacridone) concentration is 100 nM.
Fluorescence emission spectra of 9-aminoacridine and 10-methyl-9(10H)-acridone (N-methylacridone) upon excitation at 405 nm. Both compounds at a concentration of 100 nM in 140 mM NaCl, 10 mM phosphate buffer pH 7.4, were obtained.
Fluorescence emission spectrum of (Acridin-9-ylamino)acetic acid ethyl ester at 100 nM concentration in 140 mM NaCl, 10 mM phosphate buffer pH 7.4 upon excitation at 405 nm is shown in FIG. 4.

[3] = biological target: T1, Caspase-3 recombinant enzyme (Homo sapiens, UniProt P42574); test: Fluorescence lifetime based Caspase-3 cleavage assay of dye-labelled DEVDSW peptide; assay type: biochemical; conditions: 1 uM substrate
T1 construct: purchased Calbiochem
T1 sequence (P42574 29-175 limits assumed): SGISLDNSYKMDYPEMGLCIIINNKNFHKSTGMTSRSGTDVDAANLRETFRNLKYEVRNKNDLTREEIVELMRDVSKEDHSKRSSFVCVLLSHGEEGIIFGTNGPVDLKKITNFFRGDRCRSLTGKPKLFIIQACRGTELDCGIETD
T1 sequence (P42574 176-277 limits assumed): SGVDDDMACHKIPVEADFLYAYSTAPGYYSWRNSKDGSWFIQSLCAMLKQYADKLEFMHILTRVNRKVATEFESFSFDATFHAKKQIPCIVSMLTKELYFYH
Experimental: The 9-aminoacridine labelled peptide substrate, AA-DEVDSW (1 uM concentration in […] buffer pH 7.4 containing 10% sucrose, 0.1% CHAPS, 100 mM NaCl, 1 mM EDTA, 10 mM DTT) was employed in a biochemical assay using Caspase-3 recombinant enzyme (50 U and 20 U) at 30° C. The assay mixture was analysed at time intervals using an Edinburgh Instruments Fluorescence Lifetime Plate Reader. […] The data could also be easily viewed as a change in percentage cleavage over time, confirming that the reaction was progressing to completion after 90 minutes when 50 units of caspase 3 was employed (see FIGS. 8 and 9).
• Buffer: 20 mM HEPES buffer pH7.4 containing 10% sucrose, 0.1% CHAPS, 100 mM NaCl, 1 mM EDTA, 10 mM DTT • Substrate solution: 10 uM 3-(9-aminoacridin-2-yl) propionyl-DEVDSW in buffer. • Product solution: 10 uM 3-(9-aminoacridin-2-yl) propionyl-DEVDSK in buffer. • Enzyme solution: 10 U/ul in buffer. Procedure
To the well of a 96-well plate was added buffer (88 ul), substrate solution (10 ul, 1 uM final conc.) and enzyme (2 ul for 20 U). Reactions were performed in triplicate and also at varying enzyme concentrations. The reaction progress was followed at time intervals using an Edinburgh Instruments Fluorescence Lifetime Plate Reader against wells containing product and substrate standards.
The partially quenched 9-aminoacridine-labelled peptide substrate, 3-(9-aminoacridin-2-yl) propionyl-DEVDSW, was employed in a biochemical enzymatic cleavage assay using recombinant Caspase-3 enzyme purchased from Calbiochem. The assay was carried out using 1 uM substrate concentration in 20 mM HEPES buffer pH 7.4 containing 10% sucrose, 0.1% CHAPS, 100 mM NaCl, 1 mM EDTA, 10 mM DTT, in the presence of either 20 or 50 units of enzyme (100 ul final volume). The assay mixture was analysed at time intervals using an Edinburgh Instruments Fluorescence Lifetime Plate Reader. […] The deviation in fluorescence lifetime from that stated above was a consequence of the buffer system.

[4] = Fluorescence emission spectra / intensity; assay type: physicochemical
[5] = 20 mM HEPES buffer pH 7.4, 20 or 50 units of enzyme

Compound: CC(C)(C)OC(=O)/C=C/c1ccc2nc3ccccc3c(N)c2c1 [3-(9-Amino-acridin-2-yl)-acrylic acid tert-butyl ester]
- Lifetime* (ns) [1]: 11.2 ns

Compound: CC(C)[C@H](NC(=O)[C@H](CCC(=O)O)NC(=O)[C@H](CC(=O)O)NC(=O)CCc1ccc2nc3ccccc3c(N)c2c1)C(=O)N[C@@H](CC(=O)O)C(=O)N[C@@H](CO)C(=O)N[C@@H](CCCCN)C(=O)O [3-(9-Amino-acridin-2-yl)-propionyl-DEVDSK] ({Propanoyl(3-(9AA-2-yl))}-DEVDSK-OH)
- fluorescence lifetime [1]: 17.7 ns
- Lifetime* (ns) [1]: 17.7 ns
- fluorescence properties (emission spectrum, intensity, lifetime) compared with 9-aminoacridine [2]: comparable emission spectrum and fluorescence intensity to that of 9-aminoacridine

Compound: CC(C)[C@H](NC(=O)[C@H](CCC(=O)O)NC(=O)[C@H](CC(=O)O)NC(=O)CCc1ccc2nc3ccccc3c(N)c2c1)C(=O)N[C@@H](CC(=O)O)C(=O)N[C@@H](CO)C(=O)N[C@@H](Cc1c[nH]c2ccccc12)C(=O)O [3-(9-Amino-acridin-2-yl)-propionyl-DEVDSW] ({Propanoyl(3-(9AA-2-yl))}-DEVDSW-OH)
- fluorescence lifetime [1]: 7.6 ns
- Lifetime* (ns) [1]: 7.7 ns
- fluorescence lifetime of reaction mixture after cleavage [3, 5]: 15.5 ns
- fluorescence lifetime of reaction mixture at start of reaction [3, 5]: 8.5 ns
- time at which cleavage reaction was progressing to completion ([3]; 50 units of caspase 3 enzyme, 20 mM HEPES buffer pH 7.4): 60 min
- fluorescence intensity quenched by tryptophan ([4]; tryptophan (W) containing labelled peptide versus lysine (K) containing labelled peptide): 75%

Compound: CC(C)(C)OC(=O)CCc1ccc2nc3ccccc3c(N)c2c1 [3-(9-amino-acridin-2-yl)-propionic acid tert-butyl ester]
- Lifetime* (ns) [1]: 16.7 ns
- fluorescence properties (emission spectrum, intensity, lifetime) compared with 9-aminoacridine [2]: comparable to the parent 9-aminoacridine

Compound: Nc1c2ccccc2nc2ccc(CCC(=O)O)cc12 [3-(9-amino-acridin-2-yl)-propionic acid]
- Lifetime* (ns) [1]: 17.0 ns
- fluorescence properties (emission spectrum, intensity, lifetime) compared with 9-aminoacridine [2]: comparable to the parent 9-aminoacridine

Compound: CCOC(=O)CNc1c2ccccc2nc2ccccc12 [(Acridin-9-ylamino)acetic acid ethyl ester]
- fluorescence lifetime ([1]; Excitation wavelength 405 nm and emission wavelength 450 nm): 14.9 ns

Compound: Cn1c2ccccc2c(=O)c2ccccc21 [N-methyl acridone, 10-methyl-9(10H)-acridone, reference compound]
- Fluorescence Lifetime (nsecs) in PBS pH 7.4 [1]: 13.9 nsecs

Compound: Cn1c2ccccc2c(=S)c2ccccc21 [N-methyl thioacridone, 10-methyl-9(10H)-thioacridone, reference compound]
- fluorescence emission intensity compared with N-methyl acridone [2]: considerably less fluorescent

Compound: Nc1c2ccccc2nc2ccccc12 [Number 1, 9-aminoacridine, reference compound]
- Lifetime (ns) [1]: 15 ns
- Fluorescence Lifetime (nsecs) in PBS pH 7.4 [1]: 16.0 nsecs
- Relative intensity Ex405 nm, Emmax [2]: 1
- fluorescence emission intensity compared with N-methyl acridone [2]: considerably brighter

Compound: Nc1ccc2nc3ccccc3c(N)c2c1 [Number 6]
- Lifetime (ns) [1]: Not fluorescent
- Relative intensity Ex405 nm, Emmax [2]: Not fluorescent
- fluorescence (in words) ([4]; free amino dye, no acetylation): non-fluorescent

Compound: CC(=O)Nc1ccc2nc3ccc(N)cc3c(N)c2c1 [Number 7]
- Lifetime (ns) [1]: multiexponential
- Relative intensity Ex405 nm, Emmax [2]: Not fluorescent

Source: patent US9127164B2, “Fluorescent dyes and uses thereof” (ALMAC SCIENCES (SCOTLAND) LIMITED, priority 2005, dated 2015)
